# Target: T1, Sirt6 (Homo sapiens, UniProt Q8N6T7)
# T1 construct: purchased CycLex CY-1156V2
# Assay: Measurement of Sirt6 Activity (CycLex Sirt6 Deacetylase Fluorometric Assay Kit)
# Format: biochemical
# Settings: compound at 10 μM; fluorescence relative to the group without compound treatment (positive control group)
# Protocol: LC-MS (ESI, m/z)=430.1 (M+H^+) Experimental Example 1: Measurement of Sirt6 Activity Compounds having Sirt6 activity were selected using a CycLex Sirt6 Deacetylase Fluorometric Assay Kit (cat. CY-1156V2) manufactured by CycLex.
# When a fluorescent-attached acetylated lysine substrate is treated with Sirt6 enzyme, Sirt6 deacetylates the acetylated lysine of the substrate and lysylendopeptidase cleaves the C-terminal peptide bond connected to the lysine, by which fluorescence is emitted. The activity of a compound is calculated by observing the intensity of fluorescence when the compound is treated along with Sirt6 enzyme. When treating the compound, the compound aids in the activity of Sirt6 enzyme, so as to result in stronger fluorescence. Therefore, by calculating the ratio of the stronger fluorescence relative to the fluorescence emitted from the group without compound treatment (i.e., positive control group), relative activity can be calculated.
# Activity evaluation was performed according to the following procedure.
# The compound whose activity is to be evaluated was prepared by diluting in phosphate-buffered saline (PBS) to 10 times of the desired concentration (e.g., when measuring Sirt6 assay activity at 10 μM, the compound is prepared at a concentration of 100 μM in PBS). 1 μL of a 1 Ox Sirt6 assay buffer, 0.8 μL of 50× fluoro-substrate peptide, 1 μL of nicotinamide adenine dinucleotide (NAD), 1 μL of a developer and 4.2 μL of H2O were mixed to prepare mixtures equal to the number of samples, and 8 μL was dispensed into each Black 384 well. An additional 1 μL of PBS was added to each of a “no enzyme group” and a positive control group, and 1 μL of the compound diluted in PBS was added to an activity evaluation group. Recombinant Sirt6 was 1:8 diluted in a 1×Sirt6 assay buffer, and 1 μL thereof was added to each of the positive control group and the activity evaluation group. 1 μL of the 1×Sirt6 assay buffer was added to the “no enzyme group.” After reacting at room temperature for one hour, results were measured with a fluorescence spectrometer (excitation: 490±10 nm, emission: 530±10 nm) to confirm the presence or absence of Sirt6 activity and measure the intensity of the activity.
# T1 sequence (Q8N6T7 whole entry): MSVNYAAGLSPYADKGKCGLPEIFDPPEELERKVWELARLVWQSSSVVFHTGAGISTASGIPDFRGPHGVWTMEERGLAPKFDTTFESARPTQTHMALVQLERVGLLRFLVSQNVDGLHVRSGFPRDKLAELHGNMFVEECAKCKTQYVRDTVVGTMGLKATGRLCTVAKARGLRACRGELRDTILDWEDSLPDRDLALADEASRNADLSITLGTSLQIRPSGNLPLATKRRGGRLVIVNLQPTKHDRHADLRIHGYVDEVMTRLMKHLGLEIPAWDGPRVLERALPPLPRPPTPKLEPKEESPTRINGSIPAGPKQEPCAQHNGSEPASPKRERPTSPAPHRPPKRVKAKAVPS
row,SMILES,"Sirt6 Activity (% activity, 10 μM) [% activity]"
1,"CC(C)(C(=O)O)c1cccc(-c2nn(C3CCCCC3)c(=O)c3ccccc23)c1 [Example 160, 2-(3-(3-Cyclohexyl-4-oxo-3,4-dihydrophthalazin-1-yl)phenyl)-2-methylpropanoic Acid]",289.8
2,"CCS(=O)(=O)c1cccc(-c2nn(-c3ccc(F)cc3F)c(=O)c3ccccc23)c1 [Example 90, 2-(2,4-Difluorophenyl)-4-(3-(ethylsulfonyl)phenyl)phthalazin-1(2H)-one]",283
3,"Cc1nc(C(C)(C)c2cccc(-c3nn(-c4ccc(F)cc4F)c(=O)c4ccccc34)c2)no1 [Example 174, 2-(2,4-Difluorophenyl)-4-(3-(2-(5-methyl-1,2,4-oxadiazol-3-yl)propan-2-yl)phenyl)phthalazin-1(2H)-one]",114.2
4,"CCS(=O)(=O)N[C@H]1CCCN(c2nn(-c3ccc(F)cc3)c(=O)c3ccccc23)C1 [Example 138, (S)—N-(1-(3-(4-Fluorophenyl)-4-oxo-3,4-dihydrophthalazin-1-yl)piperidin-3-yl)ethanesulfonamide]",175.98
5,"CCS(=O)(=O)c1cccc(-c2nn(-c3c(F)cccc3F)c(=O)c3ccccc23)c1 [Example 106, 2-(2,6-Difluorophenyl)-4-(3-(ethylsulfonyl)phenyl)phthalazin-1(2H)-one]",141
6,"CNS(=O)(=O)c1cccc(-c2nn(-c3ccccc3F)c(=O)c3ccccc23)c1 [Example 99, 3-(3-(2-Fluorophenyl)-4-oxo-3,4-dihydrophthalazin-1-yl)-N-methylbenzenesulfonamide]",259
7,"N/C(=N/O)c1cccc(-c2nn(-c3ccc(F)cc3)c(=O)c3ccccc23)c1 [Example 131, (E)-3-(3-(4-Fluorophenyl)-4-oxo-3,4-dihydrophthalazin-1-yl)-N′-hydroxybenzimidamide]",102.08
8,"O=c1c2ccccc2c(-c2cccc(/C=[N+](\[O-])Cc3ccccc3)c2)nn1-c1ccc(F)cc1 [Example 44, (Z)—N-Benzyl-1-(3-(3-(4-fluorophenyl)-4-oxo-3,4-dihydrophthalazin-1-yl)phenyl)methanimine Oxide]",142
9,"NS(=O)(=O)c1cccc(-c2nn(C3CCCCC3)c(=O)c3ccccc23)c1 [Example 142, 3-(3-Cyclohexyl-4-oxo-3,4-dihydrophthalazin-1-yl)benzenesulfonamide]",162.3
10,"CCS(=O)(=O)NC1CCCCN(c2nn(C3CCCCC3)c(=O)c3ccccc23)C1 (stereo not shown) [Example 144, N-(1-(3-Cyclohexyl-4-oxo-3,4-dihydrophthalazin-1-yl)azepan-3-yl)ethanesulfonamide]",164.1
11,"O=c1c2ccccc2c(-c2cc(/C=[N+](\[O-])Cc3ccccc3)ccc2F)nn1-c1ccc(F)cc1 [Example 58, (Z)—N-Benzyl-1-(4-fluoro-3-(3-(4-fluorophenyl)-4-oxo-3,4-dihydrophthalazin-1-yl)phenyl) Methanimine Oxide]",131
12,"CN(c1cccc(-c2nn(-c3ccc(F)cc3)c(=O)c3ccccc23)c1)S(=O)(=O)C1CC1 [Example 74, N-(3-(3-(4-Fluorophenyl)-4-oxo-3,4-dihydrophthalazin-1-yl)phenyl)-N-methylcyclopropane Sulfonamide]",128
13,"CC(C)/[N+]([O-])=C/c1cccc(-c2nn(-c3ccc(F)cc3F)c(=O)c3ccccc23)c1 [Example 22, (Z)-1-(3-(3-(2,4-Difluorophenyl)-4-oxo-3,4-dihydrophthalazin-1-yl)phenyl)-N-isopropyl Methanimine Oxide]",201
14,"CC(C)(C(=O)O)c1cccc(-c2nn(-c3ccc(Cl)cc3F)c(=O)c3ccccc23)c1 [Example 201, 2-(3-(3-(4-Chloro-2-fluorophenyl)-4-oxo-3,4-dihydrophthalazin-1-yl)phenyl)-2-methylpropanoic Acid]",204.58
15,"Cl.N[C@@H]1CCCCN(c2nn(-c3ccc(Cl)cc3)c(=O)c3ccccc23)C1 [Example 185, (R)-4-(3-Aminoazepan-1-yl)-2-(4-chlorophenyl)phthalazin-1(2H)-one-hydrochloride]",273.80
16,"N#CC1CCCCN(c2nn(-c3ccc(Cl)cc3F)c(=O)c3ccccc23)C1 (stereo not shown) [Example 203, 1-(3-(4-Chloro-2-fluorophenyl)-4-oxo-3,4-dihydrophthalazin-1-yl)azepane-3-carbonitrile]",109.84
17,"Cl.N[C@@H]1CCCCN(c2nn(-c3ccc(F)cc3F)c(=O)c3ccccc23)C1 [Example 165, (R)-4-(3-Aminoazepan-1-yl)-2-(2,4-difluorophenyl)phthalazin-1(2H)-one-hydrochloride]",277.1
18,"Cl.NC1CCCCN(c2nn(C3CCC3)c(=O)c3ccccc23)C1 (stereo not shown) [Example 172, 4-(3-Aminoazepan-1-yl)-2-cyclobutyl phthalazin-1(2H)-one-hydrochloride]",99.5
19,"O=c1c2ccccc2c(-c2cccnc2)nn1-c1c(F)cccc1F [Example 116, 2-(2,6-Difluorophenyl)-4-(pyridin-3-yl)phthalazin-1(2H)-one]",227
20,"Cl.N[C@H]1CCCN(c2nn(C3CCCCC3)c(=O)c3ccccc23)C1 [Example 146, (S)-4-(3-Aminopiperidin-1-yl)-2-cyclohexylphthalazin-1(2H)-one-hydrochloride]",135.2
21,"CC(C)/[N+]([O-])=C/c1ccccc1-c1nn(-c2ccc(F)cc2)c(=O)c2ccccc12 [Example 41, (Z)-1-(2-(3-(4-Fluorophenyl)-4-oxo-3,4-dihydrophthalazin-1-yl)phenyl)-N-isopropyl Methanimine Oxide]",129
22,"CNS(=O)(=O)c1cccc(-c2nn(-c3ccc(F)cc3F)c(=O)c3cc(F)ccc23)c1 [Example 122, 3-(3-(2,4-Difluorophenyl)-6-fluoro-4-oxo-3,4-dihydrophthalazin-1-yl)-N-methylbenzenesulfonamide]",177
23,"CC(=O)N[C@@H]1CCCCN(c2nn(-c3ccc(F)cc3F)c(=O)c3ccccc23)C1 [Example 192, (R)—N-(1-(3-(2,4-Difluorophenyl)-4-oxo-3,4-dihydrophthalazin-1-yl)azepan-3-yl)acetamide]",286.60
24,"CC(C)(C)/[N+]([O-])=C/c1cccc(-c2nn(-c3c(F)cccc3F)c(=O)c3ccccc23)c1 [Example 104, (Z)—N-tert-Butyl-1-(3-(3-(2,6-difluorophenyl)-4-oxo-3,4-dihydrophthalazin-1-yl)phenyl)methanimine Oxide]",284
25,"CS(=O)(=O)c1cccc(-c2nn(-c3ccccc3)c(=O)c3cc(F)ccc23)c1 [Example 112, 7-Fluoro-4-(3-(methylsulfonyl)phenyl)-2-phenylphthalazin-1(2H)-one]",103

# Reference: patent US20220235011A1, “PHTHALAZINONE COMPOUNDS AND USE THEREOF” (ST PHARM CO., LTD., priority 2019, published 2022)
